In patent EP3915546A1, “USE OF ACID AS SOLVENT FOR PRECIPITATIONS” (leon-nanodrugs GmbH, priority 2020, dated 2021):

How the values were obtained:
Format in all cases: physicochemical
[1] = Thermodynamic saturation solubility in solvents and their mixtures with water (24 h stirring at room temperature, HPLC)
Procedure: Zur Bestimmung der thermodynamischen Sättigungslöslichkeit einer Substanz in einem bestimmten Lösungsmittel wird zunächst zur Orientierung eine Literaturrecherche durchgeführt, um einen ersten groben Richtwert zu erhalten. Danach wurden 500 mg (und gegebenenfalls mehr) des Wirkstoffpulvers eingewogen und in 5 ml des Lösungsmittels unter leichtem Rühren suspendiert. Falls das Pulver vollständig in Lösung ging, wurde zusätzlich 100 mg (oder iterative nochmalige Zugabe der initial eingewogenen Menge) Feststoff zugesetzt. Dies wurde wiederholt, bis sich ein Bodensatz bildete.
Die feststoff-enthaltende Mischung wurde verschlossen und 24 Stunden bei Raumtemperatur gerührt. Nach 24 Stunden wurde der Überstand von Bodensatz getrennt, zentrifugiert (Filtration ist nahezu unmöglich) und zur Quantifizierung mit der mobilen Phase der HPLC-Methode verdünnt.
Ein weiterer Teil des zentrifugierten Überstandes wurde unter Rühren mit demineralisiertem Wasser im Volumenverhältnis von 1:1 gemischt. Dazu wurde Wasser vorgelegt und die Wirkstofflösung unter Rühren oder Schütteln zu pipettiert. Dabei fiel Wirkstoff aus. Der Überstand wurde nach 3 Stunden von Bodensatz getrennt, zentrifugiert und zur Quantifizierung mittels HPLC verdünnt. Der Verdünnungsschritt wird grob abgeschätzt, Zielkonzentration sind z. B. 100 µg/mL je nach Wirkstoff, um im Linearitätsbereich des Detektors zu bleiben. Liegt die Konzentration zu hoch oder zu niedrig wird der Verdünnungsschritt angepasst. Die Verdünnung erfolgte mit einem zu mobilen Phase kompatiblen Lösungsmittelgemisch (z. B. Methanol vorlegen, Probe zugeben, Wasser zugeben). Falls die Substanz in diesem Lösungsmittelgemisch in dieser Verdünnung nicht löslich war, wurde die Verdünnung mit reinem organischem Lösungsmittel wiederholt.
Dieses Vorgehen wurde für die Mischungsverhältnisse von 1:2, 1:3 und 1:10 wiederholt.

[2] = Precipitation with water: total concentration in suspension and share dissolved in the mother liquor
Procedure: Für die pharmazeutische Weiterverarbeitung der Suspension zu einem Arzneimittel ist es wünschenswert, eine Wirkstoffkonzentration von mehr als 50 mg/ml zu erzeugen. Tabelle 4: Erzeugung von ENZ Partikeln durch Fällung. Gesamtkonzentration an ENZ in der Suspension (mg/ml) und der Anteil (%) des in der Mutterlauge gelösten ENZ
Wird eine Lösung von 100 mg/ml Enzalutamide in Aceton mit gleichem Teil an Wasser gemischt, so fällt ein Großteil des Enzalutamides aus, da dessen Sättigungskonzentration überschritten wird. Die resultierende Mischung enthält 50% Aceton und eine Gesamtmenge von 50 mg/ml Enzalutamide. Davon werden 7,87 mg/ml in der Mutterlauge gelöst vorliegen (Tabelle 3, Nr. 2, Aceton); dies entspricht 15,7 % der Gesamtmenge von 50 mg/ml (Tabelle 4, Nr. 2, Aceton). Diese gelöste Menge an Enzalutamide (15,7 % der Gesamtmenge) ist zu hoch und führt zu einem unerwünschten und schnellen Wachstum der Partikel.

[3] = Microscopy of the suspension after precipitation in a MikroJetReaktor (particle growth)
Procedure: • Figur 1: Mikroskopische Aufnahme von ENZ, entstanden durch Mischen von 1 Teil einer Lösung von 100 mg/ml ENZ in Aceton mit 1 Teil Wasser. Maßstab: Der Balken im Bild entspricht 20 µm. (a) Aufnahme unmittelbar nach Fällung. (b) Aufnahme ca. 12 Stunden nach der Fällung. • Figur 2: Mikroskopische Aufnahme von ENZ-Partikeln. Entstanden durch Mischen von 1 Teil einer Lösung von 100 mg/ml ENZ in Eisessig mit 10 Teilen Wasser. Maßstab: Der Balken im Bild entspricht 20 µm. (a) Aufnahme ca. 1 Stunde nach Fällung. (b) Aufnahme ca. 18 Stunden nach der Fällung.
100 mg Enzalutamide werden unter Rühren in 1 ml Aceton bei Raumtemperatur gelöst (100 mg/ml). Diese Lösung wird in einem MikroJetReaktor mit Wasser gemischt in einem Mischungsverhältnis von 1 Teil Enzalutamide in Aceton zu 1,01 Teilen Wasser. Die erhaltene Suspension wird mikroskopiert (Figur. 1).
100 mg Enzalutamide werden unter Rühren in 1 ml Eisessig bei Raumtemperatur gelöst (100 mg/ml). Diese Lösung wird in einem MikroJetReaktor mit Wasser gemischt in einem Mischungsverhältnis von 1 Teil Enzalutamide in Eisessig zu 10 Teilen Wasser. Die erhaltene Suspension wird mikroskopiert (Figur 3).

[4] = Aceton, Lösungsmittel-Gehalt der Mischung 100 %
[5] = Aceton/Wasser, Lösungsmittel-Gehalt der Mischung 9,09 %
[6] = Aceton/Wasser, Lösungsmittel-Gehalt der Mischung 25 %
[7] = Aceton/Wasser, Lösungsmittel-Gehalt der Mischung 33,3 %
[8] = Aceton/Wasser, Lösungsmittel-Gehalt der Mischung 50 %
[9] = Ameisensäure/Wasser, Lösungsmittel-Gehalt der Mischung 9,09 %
[10] = Eisessig, Lösungsmittel-Gehalt der Mischung 100 %
[11] = Eisessig/Wasser, Lösungsmittel-Gehalt der Mischung 9,09 %
[12] = Eisessig/Wasser, Lösungsmittel-Gehalt der Mischung 25 %
[13] = Eisessig/Wasser, Lösungsmittel-Gehalt der Mischung 33,3 %
[14] = Eisessig/Wasser, Lösungsmittel-Gehalt der Mischung 50 %
[15] = Ethanol, Lösungsmittel-Gehalt der Mischung 100 %
[16] = Ethanol/Wasser, Lösungsmittel-Gehalt der Mischung 9,09 %
[17] = Ethanol/Wasser, Lösungsmittel-Gehalt der Mischung 25 %
[18] = Ethanol/Wasser, Lösungsmittel-Gehalt der Mischung 33,3 %
[19] = Ethanol/Wasser, Lösungsmittel-Gehalt der Mischung 50 %
[20] = THF, Lösungsmittel-Gehalt der Mischung 100 %
[21] = THF/Wasser, Lösungsmittel-Gehalt der Mischung 9,09 %
[22] = THF/Wasser, Lösungsmittel-Gehalt der Mischung 25 %
[23] = THF/Wasser, Lösungsmittel-Gehalt der Mischung 33,3 %
[24] = THF/Wasser, Lösungsmittel-Gehalt der Mischung 50 %

CCC(C)n1ncn(-c2ccc(N3CCN(c4ccc(OCC5COC(Cn6cncn6)(c6ccc(Cl)cc6Cl)O5)cc4)CC3)cc2)c1=O (centres unmarked) [ITZ, Itraconazol]
Sättigungslöslichkeit von ITZ [1, 4]: 2,500 mg/ml
Sättigungslöslichkeit von ITZ relativ zu der Sättigungslöslichkeit im Lösungsmittel [1, 4]: 100%
Sättigungslöslichkeit von ITZ [1, 5]: 0,0001 mg/ml
Sättigungslöslichkeit von ITZ relativ zu der Sättigungslöslichkeit im Lösungsmittel [1, 5]: 0,004%
Sättigungslöslichkeit von ITZ [1, 6]: 0,002 mg/ml
Sättigungslöslichkeit von ITZ relativ zu der Sättigungslöslichkeit im Lösungsmittel [1, 6]: 0,09%
Sättigungslöslichkeit von ITZ [1, 7]: 0,008 mg/ml
Sättigungslöslichkeit von ITZ relativ zu der Sättigungslöslichkeit im Lösungsmittel [1, 7]: 0,34%
Sättigungslöslichkeit von ITZ [1, 8]: 0,038 mg/ml
Sättigungslöslichkeit von ITZ relativ zu der Sättigungslöslichkeit im Lösungsmittel [1, 8]: 1,53%
Sättigungslöslichkeit von ITZ ([1]; Ameisensäure, Lösungsmittel-Gehalt der Mischung 100 %): 435 mg/mL
Sättigungslöslichkeit von ITZ [1, 9]: 0,01 mg/ml
Sättigungslöslichkeit von ITZ relativ zu der Sättigungslöslichkeit im Lösungsmittel [1, 9]: 0,002%
Sättigungslöslichkeit von ITZ [1, 10]: 157,8 mg/ml
Sättigungslöslichkeit von ITZ relativ zu der Sättigungslöslichkeit im Lösungsmittel [1, 10]: 100%
Sättigungslöslichkeit von ITZ [1, 11]: 0,028 mg/ml
Sättigungslöslichkeit von ITZ relativ zu der Sättigungslöslichkeit im Lösungsmittel [1, 11]: 0,02%
Sättigungslöslichkeit von ITZ [1, 12]: 0,009 mg/ml
Sättigungslöslichkeit von ITZ relativ zu der Sättigungslöslichkeit im Lösungsmittel [1, 12]: 0,01%
Sättigungslöslichkeit von ITZ [1, 13]: 0,210 mg/ml
Sättigungslöslichkeit von ITZ relativ zu der Sättigungslöslichkeit im Lösungsmittel [1, 13]: 0,13%
Sättigungslöslichkeit von ITZ [1, 14]: 1,455 mg/ml
Sättigungslöslichkeit von ITZ relativ zu der Sättigungslöslichkeit im Lösungsmittel [1, 14]: 0,92%
Sättigungslöslichkeit von ITZ [1, 15]: 0,289 mg/ml
Sättigungslöslichkeit von ITZ relativ zu der Sättigungslöslichkeit im Lösungsmittel [1, 15]: 100%
Sättigungslöslichkeit von ITZ [1, 16]: 0,009 mg/ml
Sättigungslöslichkeit von ITZ relativ zu der Sättigungslöslichkeit im Lösungsmittel [1, 16]: 2,95%
Sättigungslöslichkeit von ITZ [1, 17]: 0,006 mg/ml
Sättigungslöslichkeit von ITZ relativ zu der Sättigungslöslichkeit im Lösungsmittel [1, 17]: 2,08%
Sättigungslöslichkeit von ITZ [1, 18]: 0,002 mg/ml
Sättigungslöslichkeit von ITZ relativ zu der Sättigungslöslichkeit im Lösungsmittel [1, 18]: 0,69%
Sättigungslöslichkeit von ITZ [1, 19]: 0,102 mg/ml
Sättigungslöslichkeit von ITZ relativ zu der Sättigungslöslichkeit im Lösungsmittel [1, 19]: 34,36%
Sättigungslöslichkeit von ITZ [1, 20]: 4,255 mg/ml
Sättigungslöslichkeit von ITZ relativ zu der Sättigungslöslichkeit im Lösungsmittel [1, 20]: 100%
Sättigungslöslichkeit von ITZ [1, 21]: 0,001 mg/ml
Sättigungslöslichkeit von ITZ relativ zu der Sättigungslöslichkeit im Lösungsmittel [1, 21]: 0,02%
Sättigungslöslichkeit von ITZ [1, 22]: 0,002 mg/ml
Sättigungslöslichkeit von ITZ relativ zu der Sättigungslöslichkeit im Lösungsmittel [1, 22]: 0,05%
Sättigungslöslichkeit von ITZ [1, 23]: 0,013 mg/ml
Sättigungslöslichkeit von ITZ relativ zu der Sättigungslöslichkeit im Lösungsmittel [1, 23]: 0,29%
Sättigungslöslichkeit von ITZ [1, 24]: 0,677 mg/ml
Sättigungslöslichkeit von ITZ relativ zu der Sättigungslöslichkeit im Lösungsmittel [1, 24]: 15,91%
Sättigungslöslichkeit von ITZ ([1]; in Tetrahydrofuran, Aceton und Ethanol): < 5 mg/mL
Sättigungslöslichkeit von ITZ ([1]; in den Lösungsmitteln Ameisensäure und Eisessig): > 150 mg/mL

CNC(=O)c1ccc(N2C(=S)N(c3ccc(C#N)c(C(F)(F)F)c3)C(=O)C2(C)C)cc1F [ENZ, Enzalutamid]
Sättigungslöslichkeit von ENZ [1, 4]: 358 mg/mL
Sättigungslöslichkeit von ENZ [1, 6]: 0,233 mg/ml
Sättigungslöslichkeit von ENZ [1, 7]: 0,537 mg/ml
Sättigungslöslichkeit von ENZ [1, 8]: 7,87 mg/ml
Sättigungslöslichkeit von ENZ [1, 10]: 155,4 mg/ml
Sättigungslöslichkeit von ENZ [1, 11]: 0,086 mg/ml
Sättigungslöslichkeit von ENZ [1, 12]: 0,112 mg/ml
Sättigungslöslichkeit von ENZ [1, 13]: 0,294 mg/ml
Sättigungslöslichkeit von ENZ [1, 14]: 2,044 mg/ml
Sättigungslöslichkeit von ENZ ([1]; Eisessig/Wasser, Lösungsmittel-Gehalt der Mischung 50 %, listed as Enzalutamide): 2,04 mg/ml
Sättigungslöslichkeit von ENZ [1, 20]: 364 mg/mL
Sättigungslöslichkeit von ENZ [1, 22]: 0,365 mg/ml
Sättigungslöslichkeit von ENZ [1, 23]: 2,68 mg/ml
Sättigungslöslichkeit von ENZ [1, 24]: 16,9 mg/ml
ENZ in Lösung bei Fällung aus (% der Gesamtmenge in Suspension) ([2]; Aceton, Lösungsmittel-Gehalt der Suspension 100 %, ENZ in Suspension 100 mg/ml): 100%
ENZ in Lösung bei Fällung aus (% der Gesamtmenge in Suspension) ([2]; Eisessig, Lösungsmittel-Gehalt der Suspension 100 %, ENZ in Suspension 100 mg/ml): 100%
ENZ in Lösung bei Fällung aus (% der Gesamtmenge in Suspension) ([2]; Fällung aus Aceton with Wasser, Lösungsmittel-Gehalt der Suspension 25 %, ENZ in Suspension 25 mg/ml): 0,93%
ENZ in Lösung bei Fällung aus (% der Gesamtmenge in Suspension) ([2]; Fällung aus Aceton with Wasser, Lösungsmittel-Gehalt der Suspension 33,3 %, ENZ in Suspension 33,3 mg/ml): 1,61%
ENZ in Lösung bei Fällung aus (% der Gesamtmenge in Suspension) ([2]; Fällung aus Aceton with Wasser, Lösungsmittel-Gehalt der Suspension 50 %, ENZ in Suspension 50 mg/ml): 15,7%
ENZ in Lösung bei Fällung aus (% der Gesamtmenge in Suspension) ([2]; Fällung aus Eisessig with Wasser, Lösungsmittel-Gehalt der Suspension 9,09 %, ENZ in Suspension 9,1 mg/ml): 0,95%
ENZ in Lösung bei Fällung aus (% der Gesamtmenge in Suspension) ([2]; Fällung aus Eisessig with Wasser, Lösungsmittel-Gehalt der Suspension 25 %, ENZ in Suspension 25 mg/ml): 0,45%
ENZ in Lösung bei Fällung aus (% der Gesamtmenge in Suspension) ([2]; Fällung aus Eisessig with Wasser, Lösungsmittel-Gehalt der Suspension 33,3 %, ENZ in Suspension 33,3 mg/ml): 0,88%
ENZ in Lösung bei Fällung aus (% der Gesamtmenge in Suspension) ([2]; Fällung aus Eisessig with Wasser, Lösungsmittel-Gehalt der Suspension 50 %, ENZ in Suspension 50 mg/ml): 4,09%
ENZ in Lösung bei Fällung aus (% der Gesamtmenge in Suspension) ([2]; Fällung aus THF with Wasser, Lösungsmittel-Gehalt der Suspension 25 %, ENZ in Suspension 25 mg/ml): 1,46%
ENZ in Lösung bei Fällung aus (% der Gesamtmenge in Suspension) ([2]; Fällung aus THF with Wasser, Lösungsmittel-Gehalt der Suspension 33,3 %, ENZ in Suspension 33,3 mg/ml): 8,04%
ENZ in Lösung bei Fällung aus (% der Gesamtmenge in Suspension) ([2]; Fällung aus THF with Wasser, Lösungsmittel-Gehalt der Suspension 50 %, ENZ in Suspension 50 mg/ml): 33,8%
ENZ in Lösung bei Fällung aus (% der Gesamtmenge in Suspension) ([2]; THF, Lösungsmittel-Gehalt der Suspension 100 %, ENZ in Suspension 100 mg/ml): 100%
Particles seen by microscopy after precipitation ([3]; 100 mg/ml in Aceton mixed with 1,01 Teilen Wasser in a MikroJetReaktor): Mikropartikel, die innerhalb von 12 Stunden zu großen Nadeln wachsen
Particles seen by microscopy after precipitation ([3]; 100 mg/ml in Eisessig mixed with 10 Teilen Wasser in a MikroJetReaktor): im Vergleich zu Aceton deutlich kleinere Partikel, die in Laufe von 18 Stunden zu Nadeln wachsen
